# Like-named read-outs stand apart in the source and are kept apart here.
# Assays:
# [1] = tested on: pancreatic cancer cell Line (KP3); assay: MTS cytotoxicity on KP3 cells; format: cell-based
# Protocol: (§1) The following was a study of the cytotoxicity study of compound of 2-(substituted phenylhetero)aromatic formic acid of formula (I) and its derivatives as FTO inhibitors on solid tumors including human small cell lung cancer cell lines (SCLC-21H), human bone marrow rhabdomyosarcoma cell line (RH30) and pancreatic cancer cell Line (KP3):
# (§2) SCLC-21H, RH30 and KP3 solid tumor cell lines were cultivated separately, and seeded at 5000 cells per well in 96 well plates. The cells were cultured until the cells were adherent, and different compounds were added and the cultivation was continued for 72 hours. 10 uL of MTS solution was directly added and the mixture was incubated for 4 h, and the absorbance was measured at 490 nm. The inhibition rate was calculated by using the DMSO group as a control.
# [2] = tested on: human bone marrow rhabdomyosarcoma cell line (RH30); assay: MTS cytotoxicity on RH30 cells; format: cell-based
# Protocol: as §1, §2
# [3] = tested on: human small cell lung cancer cell lines (SCLC-21H); assay: MTS cytotoxicity on SCLC-21H cells; format: cell-based; conditions: for IC50: read-out: Cytotoxicity on cell line SCLC (IC50)
# Protocol: as §1, §2
# FTO = FTO (Homo sapiens (Human), UniProt Q9C0B1); assay: FTO enzyme inhibition (m6A dsDNA substrate, DpnII digestion, gel readout); format: biochemical; conditions: for Inhibition rate: in vitro inhibition rate on FTO, compound at 50 μM
# Protocol: High purity FTO protein was obtained by nickel column affinity chromatography purification.
# After incubation at room temperature for 2 hrs, the reaction system was then slowly heated to 65° C. to inactivate, and 1 μM 39 nt of antisense strand DNA was added to anneal, thereby forming double strands. […] After Gel-Red dyeing, photos were taken with gel imaging system. The obtained band was subjected to gray scale reading to obtain inhibition rate.
# Chain of FTO (Q9C0B1 whole entry): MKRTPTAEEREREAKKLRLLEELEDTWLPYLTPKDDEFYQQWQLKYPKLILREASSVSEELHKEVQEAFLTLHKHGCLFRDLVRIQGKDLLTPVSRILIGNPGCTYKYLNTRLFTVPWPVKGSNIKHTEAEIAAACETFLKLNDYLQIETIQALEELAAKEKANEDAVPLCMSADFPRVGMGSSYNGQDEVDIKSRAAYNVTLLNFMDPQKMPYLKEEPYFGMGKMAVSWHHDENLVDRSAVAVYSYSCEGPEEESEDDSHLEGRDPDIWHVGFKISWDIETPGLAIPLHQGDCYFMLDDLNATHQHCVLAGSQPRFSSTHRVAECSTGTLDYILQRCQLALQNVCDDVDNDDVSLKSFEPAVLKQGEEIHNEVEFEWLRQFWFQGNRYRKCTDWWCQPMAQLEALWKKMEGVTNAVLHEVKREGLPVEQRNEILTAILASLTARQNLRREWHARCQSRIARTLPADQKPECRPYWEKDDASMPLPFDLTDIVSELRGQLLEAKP
SMILES,IC50 [1],IC50 [2],IC50 [3],IC50 (FTO),Inhibition rate (FTO),"Inhibition rate (human bone marrow rhabdomyosarcoma cell RH30) ([2]; 50 μM, 72 h)","Inhibition rate (human small cell lung cancer SCLC-21H) ([3]; 50 μM, 72 h)",IC50 ([1]; Pancreatic cancer cell),"IC50 ([2]; Homo sapiens, Rh30)","inhibition at 50 µM ([2]; Homo sapiens, Rh30, 50 μM, 72 h, read-out: Inhibition rate (human bone marrow rhabdomyosarcoma cell RH30))","inhibition at 50 µM ([3]; Homo sapiens, SCLC-21H, 50 μM, 72 h, read-out: Inhibition rate (human small cell lung cancer SCLC-21H))","IC50 ([3]; Homo sapiens, SCLC-21H)",inhibition at 50 µM (FTO; read-out: Inhibition rate)
Cc1noc(C)c1-c1cc(F)c(Nc2ccccc2C(=O)O)c(F)c1 [Compound 38],< 1 µM,9.2 µM,4.2 µM,< 1 µM,100%,,,,,,,,
CCN(CC)CCNC(=O)c1ccccc1Nc1c(Cl)cc(-c2cn[nH]c2)cc1Cl [Compound 81],< 1 µM,1.3 µM,9.2 µM,,67%,80%,83%,,,,,,
Cc1n[nH]c(C)c1-c1cc(Cl)c(Nc2ccccc2C(=O)NO)c(Cl)c1 [Compound 32],5.6 µM,5.3 µM,2.1 µM,,,63%,70%,,,,,,
Cc1n[nH]cc1-c1cc(Cl)c(Nc2ccccc2C(=O)NO)c(Cl)c1 [Compound 31],6.2 µM,3.6 µM,7.2 µM,< 5 µM,70%,70%,75%,,,,,,
Cc1noc(C)c1-c1cc(Cl)c(Nc2ccccc2C(=O)NO)c(Cl)c1 [Compound 25],,,,< 1 µM,,,,2.9 µM,2.9 µM,75%,78%,2.4 µM,46%
Cc1noc(C)c1-c1cc(Cl)c(Nc2ccccc2C(=O)NCCN2CCN(C)CC2)c(Cl)c1 [Compound 80],2 µM,2 µM,< 1 µM,,29%,82%,86%,,,,,,
O=C(NO)c1ccccc1Nc1c(Cl)cc(-c2cn[nH]c2)cc1Cl [Compound 33],2.2 µM,4.1 µM,7.1 µM,< 1 µM,63%,86%,83%,,,,,,
CCN(CC)CCNC(=O)c1cccnc1Nc1c(Cl)cc(-c2c(C)noc2C)cc1Cl [Compound 78],8.7 µM,14.7 µM,5.1 µM,,,,,,,,,,
Cc1noc(C)c1-c1cc(F)c(Nc2ccccc2C(=O)NO)c(F)c1 [Compound 39],2.6 µM,3.2 µM,7.3 µM,< 1 µM,90%,,,,,,,,
Cc1noc(C)c1-c1cc(Cl)c(Nc2ccccc2C(=O)NCCCN2CCOCC2)c(Cl)c1 [Compound 82],< 1 µM,1.6 µM,9.9 µM,,29%,,,,,,,,

# From US11555009B2, “2-(substituted benzene matrix) aromatic formate FTO inhibitor, preparation method therefor, and applications thereof” (SHANGHAI INSTITUTE OF MATERIA MEDICA, CHINESE ACADEMY OF …, priority 2017, dated 2023)
